Starred links: 1 amine or outer side, 2 acyl side, 3 side chain; linkers in the order of their positions; H or OH if unused. Non-standard residues stand in square brackets, D forms with d. Residues, ends and D or L forms follow the SMILES beside them. Groups on a side chain read outwards from the residue. *: point of attachment. Trp(1-Me) = Cn1cc(C[C@H](N)C(=O)O)c2ccccc21; Bip = N[C@@H](Cc1ccc(-c2ccccc2)cc1)C(=O)O; C18 diacid = O=C(O)CCCCCCCCCCCCCCCCC(=O)*; γGlu = O=C(O)[C@H](CCC(=O)[*:2])N[*:1]; αMeF = C[C@](N)(Cc1ccccc1)C(=O)O; AEEA = NCCOCCOCC(=O)O; Aib = CC(C)(N)C(=O)O
Tests used:
[1] = target: human GLP-1 receptor (hGLP-1R) (Homo sapiens, UniProt P43220); test: cAMP production (HTRF) in CHO cells expressing hGLP-1R; assay type: cell-based; parameters: expressed in transfected cells; conditions: for EC50: Table 6, peptides modified at position 17, cAMP in CHO hGLP-1R cells, geometric mean, read-out: hGLP-1R EC50; for % Relative Potency Ratio: Table 6, % GLP-1R activity relative to GLP-1 / % GlucR activity relative to glucagon
Sequence of human GLP-1 receptor (hGLP-1R) (P43220 24-463): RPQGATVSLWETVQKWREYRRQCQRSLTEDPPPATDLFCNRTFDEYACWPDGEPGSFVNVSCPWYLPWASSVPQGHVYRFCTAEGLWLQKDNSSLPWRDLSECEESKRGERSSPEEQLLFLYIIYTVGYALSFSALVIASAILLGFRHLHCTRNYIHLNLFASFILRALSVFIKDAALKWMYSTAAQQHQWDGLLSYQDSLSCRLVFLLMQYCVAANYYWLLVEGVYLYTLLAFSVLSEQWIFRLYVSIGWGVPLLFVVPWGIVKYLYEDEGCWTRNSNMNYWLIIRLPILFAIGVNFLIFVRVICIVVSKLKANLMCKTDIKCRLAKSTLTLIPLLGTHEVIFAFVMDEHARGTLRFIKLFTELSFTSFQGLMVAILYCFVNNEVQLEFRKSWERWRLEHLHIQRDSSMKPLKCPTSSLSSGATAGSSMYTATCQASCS
Summary of the method: (§1)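 Cells were resuspended in assay buffer at batch-optimized density, typically 1×10^5 cells/mL for hGLP-1R and 2×10^5 cells/mL for hGCGR. After 30 min incubation at room temperature with compound, cAMP was measured by two-step HTRF. EC50 values came from 4-parameter logistic fits of % Delta F.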

[2] = target: human glucagon receptor (hGCGR) (Homo sapiens, UniProt P47871); test: cAMP production (HTRF) in CHO cells expressing hGCGR; assay type: cell-based; parameters: expressed in transfected cells; conditions: Table 6, peptides modified at position 17; cAMP in CHO hGCGR cells; geometric mean; read-out: hGluc-R EC50
Sequence of human glucagon receptor (hGCGR) (P47871 26-477): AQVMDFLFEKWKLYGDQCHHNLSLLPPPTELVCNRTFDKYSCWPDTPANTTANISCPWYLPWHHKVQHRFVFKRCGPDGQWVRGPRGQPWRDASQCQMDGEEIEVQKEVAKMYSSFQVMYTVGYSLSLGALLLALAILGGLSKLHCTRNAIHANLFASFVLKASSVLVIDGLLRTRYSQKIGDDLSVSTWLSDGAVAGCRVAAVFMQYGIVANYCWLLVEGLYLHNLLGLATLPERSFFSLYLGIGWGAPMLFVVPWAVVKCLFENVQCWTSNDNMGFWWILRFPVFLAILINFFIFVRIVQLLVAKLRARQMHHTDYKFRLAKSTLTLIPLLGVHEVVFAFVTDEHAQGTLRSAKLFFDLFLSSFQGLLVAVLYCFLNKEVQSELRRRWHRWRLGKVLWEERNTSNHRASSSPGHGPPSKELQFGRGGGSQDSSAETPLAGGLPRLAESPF
Summary of the method: as §1

Compound	EC50 [1] [nM]	% Relative Potency Ratio [1]	EC50 [2] [nM]
CC(C)C[C@H](NC(=O)[C@H](Cc1c[nH]c2ccccc12)NC(=O)[C@H](CCC(N)=O)NC(=O)[C@@H](NC(=O)[C@H](Cc1ccccc1)NC(=O)[C@H](CC(=O)O)NC(=O)[C@H](CCCNC(=N)N)NC(=O)[C@H](C)NC(=O)[C@H](CCCNC(=N)N)NC(=O)[C@H](CCCCNC(=O)COCCOCCNC(=O)COCCOCCNC(=O)CC[C@H](NC(=O)CC[C@H](NC(=O)CCCCCCCCCCCCCCCCC(=O)O)C(=O)O)C(=O)O)NC(=O)[C@@H](NC(=O)[C@H](CC(=O)O)NC(=O)[C@H](CC(C)C)NC(=O)[C@](C)(Cc1ccccc1)NC(=O)[C@H](CCCCN)NC(=O)[C@H](CO)NC(=O)[C@@H](NC(=O)[C@H](CC(=O)O)NC(=O)[C@H](CO)NC(=O)[C@@H](NC(=O)[C@H](Cc1ccccc1)NC(=O)[C@@H](NC(=O)CNC(=O)[C@H](CCC(N)=O)NC(=O)C(C)(C)NC(=O)[C@@H](N)Cc1c[nH]cn1)[C@@H](C)O)[C@@H](C)O)C(C)C)[C@@H](C)O)C(C)C)C(=O)N[C@@H](CC(C)C)C(=O)N[C@@H](CCC(=O)O)C(=O)NC(C)(C)C(=O)NCC(N)=O [Peptide 428]	0.0331	0.6	0.0105
CC(C)C[C@H](NC(=O)[C@H](Cc1c[nH]c2ccccc12)NC(=O)[C@H](CCCNC(=N)N)NC(=O)[C@@H](NC(=O)[C@H](Cc1ccccc1)NC(=O)[C@H](CC(=O)O)NC(=O)[C@H](CCC(N)=O)NC(=O)[C@H](C)NC(=O)[C@H](CCCNC(=N)N)NC(=O)[C@H](CCCCNC(=O)COCCOCCNC(=O)COCCOCCNC(=O)CC[C@H](NC(=O)CCCCCCCCCCCCCCCCC(=O)O)C(=O)O)NC(=O)[C@H](CO)NC(=O)[C@H](CC(=O)O)NC(=O)[C@H](CC(C)C)NC(=O)[C@](C)(Cc1ccccc1)NC(=O)[C@H](CCCCN)NC(=O)[C@H](CO)NC(=O)[C@@H](NC(=O)[C@H](CC(=O)O)NC(=O)[C@H](CO)NC(=O)[C@@H](NC(=O)[C@H](Cc1ccccc1)NC(=O)[C@@H](NC(=O)CNC(=O)[C@H](CCC(N)=O)NC(=O)C(C)(C)NC(=O)[C@@H](N)Cc1c[nH]cn1)[C@@H](C)O)[C@@H](C)O)C(C)C)C(C)C)C(=O)N[C@@H](CCC(=O)O)C(=O)N[C@@H](C)C(=O)NC(C)(C)C(=O)NCC(N)=O [Peptide 429] (H-H[Aib]QGTFTSDVSK[αMeF]LDSK([AEEA-AEEA-γGlu-C18 diacid])RAQDFVRWLEA[Aib]G-NH2; N-terminus assumed)	0.015	19.0	0.144
CC(C)C[C@H](NC(=O)[C@H](Cc1c[nH]c2ccccc12)NC(=O)[C@H](CCCNC(=N)N)NC(=O)[C@@H](NC(=O)[C@H](Cc1ccccc1)NC(=O)[C@H](CC(=O)O)NC(=O)[C@H](CCC(N)=O)NC(=O)[C@H](C)NC(=O)[C@H](CCCNC(=N)N)NC(=O)[C@H](CCCCNC(=O)COCCOCCNC(=O)COCCOCCNC(=O)CC[C@H](NC(=O)CC[C@H](NC(=O)CCCCCCCCCCCCCCCCC(=O)O)C(=O)O)C(=O)O)NC(=O)[C@H](CO)NC(=O)[C@H](CC(=O)O)NC(=O)[C@H](CC(C)C)NC(=O)[C@](C)(Cc1ccccc1)NC(=O)[C@H](CCCCN)NC(=O)[C@H](CO)NC(=O)[C@@H](NC(=O)[C@H](CC(=O)O)NC(=O)[C@H](CO)NC(=O)[C@@H](NC(=O)[C@H](Cc1ccccc1)NC(=O)[C@@H](NC(=O)CNC(=O)[C@H](CCC(N)=O)NC(=O)C(C)(C)NC(=O)[C@@H](N)Cc1c[nH]cn1)[C@@H](C)O)[C@@H](C)O)C(C)C)C(C)C)C(=O)N[C@@H](CCC(=O)O)C(=O)N[C@@H](C)C(=O)NC(C)(C)C(=O)NCC(N)=O [Peptide 430] (H-H[Aib]QGTFTSDVSK[αMeF]LDSK([AEEA-AEEA-γGlu-γGlu-C18 diacid])RAQDFVRWLEA[Aib]G-NH2; N-terminus assumed)	0.0244	13.0	0.16
CC(C)C[C@H](NC(=O)[C@H](Cc1c[nH]c2ccccc12)NC(=O)[C@H](C)NC(=O)[C@@H](NC(=O)[C@H](Cc1ccccc1)NC(=O)[C@H](CC(=O)O)NC(=O)[C@H](CCC(N)=O)NC(=O)[C@H](C)NC(=O)[C@H](CCCNC(=N)N)NC(=O)[C@H](CCCCNC(=O)COCCOCCNC(=O)COCCOCCNC(=O)CC[C@H](NC(=O)CC[C@H](NC(=O)CCCCCCCCCCCCCCCCC(=O)O)C(=O)O)C(=O)O)NC(=O)[C@@H](NC(=O)[C@H](CC(=O)O)NC(=O)[C@H](CC(C)C)NC(=O)[C@](C)(Cc1ccccc1)NC(=O)[C@H](CCCCN)NC(=O)[C@H](CO)NC(=O)[C@@H](NC(=O)[C@H](CC(=O)O)NC(=O)[C@H](CO)NC(=O)[C@@H](NC(=O)[C@H](Cc1ccccc1)NC(=O)[C@@H](NC(=O)CNC(=O)[C@H](CCC(N)=O)NC(=O)C(C)(C)NC(=O)[C@@H](N)Cc1c[nH]cn1)[C@@H](C)O)[C@@H](C)O)C(C)C)[C@@H](C)O)C(C)C)C(=O)N[C@@H](CCC(=O)O)C(=O)N[C@@H](C)C(=O)NC(C)(C)C(=O)NCC(N)=O [Peptide 431] (H-H[Aib]QGTFTSDVSK[αMeF]LDTK([AEEA-AEEA-γGlu-γGlu-C18 diacid])RAQDFVAWLEA[Aib]G-NH2; N-terminus assumed)	0.0446	8.6	0.194
CC(C)C[C@H](NC(=O)[C@H](Cc1ccc(-c2ccccc2)cc1)NC(=O)[C@H](CCCNC(=N)N)NC(=O)[C@@H](NC(=O)[C@H](Cc1ccccc1)NC(=O)[C@H](CC(=O)O)NC(=O)[C@H](CCC(N)=O)NC(=O)[C@H](C)NC(=O)[C@H](CCCNC(=N)N)NC(=O)[C@H](CCCCNC(=O)COCCOCCNC(=O)COCCOCCNC(=O)CC[C@H](NC(=O)CCCCCCCCCCCCCCCCC(=O)O)C(=O)O)NC(=O)[C@H](CO)NC(=O)[C@H](CC(=O)O)NC(=O)[C@H](CC(C)C)NC(=O)[C@](C)(Cc1ccccc1)NC(=O)[C@H](CCCCN)NC(=O)[C@H](CO)NC(=O)[C@@H](NC(=O)[C@H](CC(=O)O)NC(=O)[C@H](CO)NC(=O)[C@@H](NC(=O)[C@H](Cc1ccccc1)NC(=O)[C@@H](NC(=O)CNC(=O)[C@H](CCC(N)=O)NC(=O)C(C)(C)NC(=O)[C@@H](N)Cc1c[nH]cn1)[C@@H](C)O)[C@@H](C)O)C(C)C)C(C)C)C(=O)N[C@@H](CC(C)C)C(=O)NC(C)(C)C(=O)N[C@@H](CCC(=O)O)C(=O)O [Peptide 432] (H-H[Aib]QGTFTSDVSK[αMeF]LDSK([AEEA-AEEA-γGlu-C18 diacid])RAQDFVR[Bip]LL[Aib]E-OH)	1.38	1.7	1.16
CC(C)C[C@H](NC(=O)[C@H](Cc1cn(C)c2ccccc12)NC(=O)[C@H](CCCNC(=N)N)NC(=O)[C@@H](NC(=O)[C@H](Cc1ccccc1)NC(=O)[C@H](CC(=O)O)NC(=O)[C@H](CCC(N)=O)NC(=O)[C@H](C)NC(=O)[C@H](CCCNC(=N)N)NC(=O)[C@H](CCCCNC(=O)COCCOCCNC(=O)COCCOCCNC(=O)CC[C@H](NC(=O)CCCCCCCCCCCCCCCCC(=O)O)C(=O)O)NC(=O)[C@H](CO)NC(=O)[C@H](CC(=O)O)NC(=O)[C@H](CC(C)C)NC(=O)[C@](C)(Cc1ccccc1)NC(=O)[C@H](CCCCN)NC(=O)[C@H](CO)NC(=O)[C@@H](NC(=O)[C@H](CC(=O)O)NC(=O)[C@H](CO)NC(=O)[C@@H](NC(=O)[C@H](Cc1ccccc1)NC(=O)[C@@H](NC(=O)CNC(=O)[C@H](CCC(N)=O)NC(=O)C(C)(C)NC(=O)[C@@H](N)Cc1c[nH]cn1)[C@@H](C)O)[C@@H](C)O)C(C)C)C(C)C)C(=O)N[C@@H](CC(C)C)C(=O)NC(C)(C)C(=O)N[C@@H](CCC(=O)O)C(=O)O [Peptide 433] (H-H[Aib]QGTFTSDVSK[αMeF]LDSK([AEEA-AEEA-γGlu-C18 diacid])RAQDFVR[Trp(1-Me)]LL[Aib]E-OH; N-terminus assumed)	4.46	4.6	10.5

Now those with a lower EC50 [1], led by results:

EC50 [1] [nM]	% Relative Potency Ratio [1]	EC50 [2] [nM]	Compound
0.0073	16.6	0.0612	CC(C)C[C@H](NC(=O)[C@H](Cc1c[nH]c2ccccc12)NC(=O)[C@H](CCCNC(=N)N)NC(=O)[C@@H](NC(=O)[C@H](Cc1ccccc1)NC(=O)[C@H](CC(=O)O)NC(=O)[C@H](CCC(N)=O)NC(=O)[C@H](C)NC(=O)[C@H](CCCNC(=N)N)NC(=O)[C@H](CCCCNC(=O)COCCOCCNC(=O)COCCOCCNC(=O)CC[C@H](NC(=O)CCCCCCCCCCCCCCCCC(=O)O)C(=O)O)NC(=O)[C@H](CCCCN)NC(=O)[C@H](CC(=O)O)NC(=O)[C@H](CC(C)C)NC(=O)[C@](C)(Cc1ccccc1)NC(=O)[C@H](CCCCN)NC(=O)[C@H](CO)NC(=O)[C@@H](NC(=O)[C@H](CC(=O)O)NC(=O)[C@H](CO)NC(=O)[C@@H](NC(=O)[C@H](Cc1ccccc1)NC(=O)[C@@H](NC(=O)CNC(=O)[C@H](CCC(N)=O)NC(=O)C(C)(C)NC(=O)[C@@H](N)Cc1c[nH]cn1)[C@@H](C)O)[C@@H](C)O)C(C)C)C(C)C)C(=O)N[C@@H](CC(C)C)C(=O)N[C@@H](CCCNC(=N)N)C(=O)NC(C)(C)C(=O)N[C@@H](CCCCN)C(=O)O [Peptide 426] (H-H[Aib]QGTFTSDVSK[αMeF]LDKK([AEEA-AEEA-γGlu-C18 diacid])RAQDFVRWLLR[Aib]K-OH; N-terminus assumed)
0.0124	7.5	0.0472	CC(C)C[C@H](NC(=O)[C@H](Cc1c[nH]c2ccccc12)NC(=O)[C@H](CCC(N)=O)NC(=O)[C@@H](NC(=O)[C@H](Cc1ccccc1)NC(=O)[C@H](CC(=O)O)NC(=O)[C@H](CCCNC(=N)N)NC(=O)[C@H](C)NC(=O)[C@H](CCCNC(=N)N)NC(=O)[C@H](CCCCNC(=O)COCCOCCNC(=O)COCCOCCNC(=O)CC[C@H](NC(=O)CCCCCCCCCCCCCCCCC(=O)O)C(=O)O)NC(=O)[C@@H](NC(=O)[C@H](CC(=O)O)NC(=O)[C@H](CC(C)C)NC(=O)[C@](C)(Cc1ccccc1)NC(=O)[C@H](CCCCN)NC(=O)[C@H](CO)NC(=O)[C@@H](NC(=O)[C@H](CC(=O)O)NC(=O)[C@H](CO)NC(=O)[C@@H](NC(=O)[C@H](Cc1ccccc1)NC(=O)[C@@H](NC(=O)CNC(=O)[C@H](CCC(N)=O)NC(=O)C(C)(C)NC(=O)[C@@H](N)Cc1c[nH]cn1)[C@@H](C)O)[C@@H](C)O)C(C)C)[C@@H](C)O)C(C)C)C(=O)N[C@@H](CC(C)C)C(=O)N[C@@H](CCC(=O)O)C(=O)NC(C)(C)C(=O)NCC(N)=O [Peptide 427]

— patent US20250353891A1 (MEDIMMUNE LIMITED, priority 2022, published 2025)
